Data on 12 molecules can be found in patent US10316020B2, “Indane derivatives and the use thereof as soluble guanylate cyclase activators” (NOVARTIS AG, priority 2015, dated 2019).

pEC50: −log10 of the molar value. Read-outs that look alike come from different tables or passages of the source.

Data set [1] can be described thus: Pharmacokinetic clearance in intravenously dosed rats. The format is in vivo. To be noted: male, Sprague-Dawley, rat, whole blood, iv, 0.5 mg/kg. On the procedure: Sprague-Daley rats were administered sGC activators intravenously to assess the systemic clearance rates of the compounds from blood by non-compartmental analysis. Compounds with high clearance rates may be less prone to exert unwanted systemic (non-local) pharmocoligcal effects, which may be a benefical property for a compound intended to be dosed via topical ocular administration with the aim of exerting a pharmacological reponse locally in the eye.
In order to assess the pharmacokinetic parameters, male Sprague-Dawley rats were given 1 mL/Kg of the dosing solution (delineated in the table below) containing a test article (0.5 mg/kg) per kg of body weight via slow intravenous injection into an indwelling jugular vein catheter in a discrete PK study. Alternatively, male Sprague-Dawley rats were given 1 mL/Kg of the dosing solution containing three test articles (0.5 mg/kg each, 1.5 mg/kg total) per kg of body weight via slow intravenous injection into an indwelling jugular vein catheter in a cassette PK study. Diet and water was provided ad libitum without exception. At specified time following a single intravenous bolus injection, approximately 100 μL of whole blood was collected from indwelling catheter in jugular vein. The blood was stored frozen at −20° C. before an LC-MS/MS method was used to quantitate drug levels in the blood. All pharmacokinetic (PK) parameters were derived from concentration-time data by non-compartmental analyses using WinNonlin Phoenix version 6.4 (Certara, St. Louis, Mo.). For the intravenous dose, the concentration of unchanged compound at time 0 was calculated based on a log-linear regression of first two data points to back-extrapolate C(0). The area under the concentration-time curve was calculated using the linear trapezoidal rule.
Data in Table 2 collected using the assay of Biological Example 2 compares compounds from the present invention to other sGC activators previously disclosed PCT/IB2015/055006 filed Jul.

For data set [2], the target named is T1, soluble guanylate cyclase (GUCYA3/GUCYB3) overexpressed in CHO cells (Homo sapiens, UniProt Q02108+Q02153).
T1 construct: expressed in transfected cells
T1 sequence (Q02108 1-690 partner): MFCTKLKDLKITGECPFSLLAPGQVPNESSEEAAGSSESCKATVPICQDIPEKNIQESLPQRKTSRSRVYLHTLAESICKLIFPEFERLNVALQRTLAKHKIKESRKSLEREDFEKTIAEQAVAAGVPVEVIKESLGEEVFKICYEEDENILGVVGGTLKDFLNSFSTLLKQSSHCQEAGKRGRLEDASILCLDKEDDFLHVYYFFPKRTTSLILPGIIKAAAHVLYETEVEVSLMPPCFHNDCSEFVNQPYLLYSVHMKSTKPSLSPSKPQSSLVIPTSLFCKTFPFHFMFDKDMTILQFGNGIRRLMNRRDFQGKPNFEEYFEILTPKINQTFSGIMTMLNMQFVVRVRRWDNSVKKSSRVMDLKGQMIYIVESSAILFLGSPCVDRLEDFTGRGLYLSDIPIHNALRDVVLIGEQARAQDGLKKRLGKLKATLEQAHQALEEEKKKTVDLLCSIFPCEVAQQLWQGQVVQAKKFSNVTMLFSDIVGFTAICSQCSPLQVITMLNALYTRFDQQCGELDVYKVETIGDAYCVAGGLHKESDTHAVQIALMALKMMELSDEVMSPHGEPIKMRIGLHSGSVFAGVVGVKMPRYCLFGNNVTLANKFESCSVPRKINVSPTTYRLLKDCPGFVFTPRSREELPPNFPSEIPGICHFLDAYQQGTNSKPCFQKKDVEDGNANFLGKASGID
T1 sequence (Q02153 1-619): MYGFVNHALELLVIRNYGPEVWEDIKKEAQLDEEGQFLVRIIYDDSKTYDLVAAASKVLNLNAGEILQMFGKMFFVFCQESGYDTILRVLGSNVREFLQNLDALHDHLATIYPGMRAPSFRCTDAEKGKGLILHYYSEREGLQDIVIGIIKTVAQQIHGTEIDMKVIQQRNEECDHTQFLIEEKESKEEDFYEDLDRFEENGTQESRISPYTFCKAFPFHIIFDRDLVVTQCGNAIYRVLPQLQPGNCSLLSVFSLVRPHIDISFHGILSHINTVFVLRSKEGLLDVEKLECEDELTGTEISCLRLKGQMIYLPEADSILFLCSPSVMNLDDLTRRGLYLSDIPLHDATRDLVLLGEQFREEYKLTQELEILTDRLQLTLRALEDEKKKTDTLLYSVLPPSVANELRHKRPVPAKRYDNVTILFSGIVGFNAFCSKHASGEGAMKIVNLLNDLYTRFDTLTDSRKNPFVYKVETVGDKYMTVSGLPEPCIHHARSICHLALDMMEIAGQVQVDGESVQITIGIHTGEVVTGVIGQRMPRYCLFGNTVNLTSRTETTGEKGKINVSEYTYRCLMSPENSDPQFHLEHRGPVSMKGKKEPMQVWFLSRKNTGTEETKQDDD
In words: CHO cellular assay (cGMP production, HTRF). The format is cell-based. From the text: Chinese hamster ovary (CHO) cells overexpressing soluble guanylate cyclase were generated to test the effect of sGC activators in a cellular context. Human cDNAs for GUCYA3 (RefSeq: NM_000856.3) and GUCYB3 (RefSeq: NM_000857.1) were amplified by PCR from a HUVEC (Human Umbilical Vein Endothelial Cells) cDNA library and cloned into mammalian expression vectors. CHO K1 cells (ATCC CCL-61) were transfected using Lipofectamine 2000 following manufacturer's instructions and stably expressing clones were identified by antibiotic selection. CHO GUCY clone 8E10 was used for subsequent experiments.
Cells were seeded at a density of 3000 cells/well in white 384-well proxyplates (Perkin Elmer) and incubated overnight, then the medium was removed and cells were washed with assay buffer (HBSS, 0.1% BSA, 1 mM IBMX, 20 uM ODQ). sGC activators were serially diluted in DMSO, then diluted in assay buffer prior to adding to cells (10 ul/well, final DMSO concentration 0.5%). Cells were incubated with compounds for 1 h at room temperature, then assayed for cGMP production using Cisbio cGMP HTRF kit (62GM2PEC) according to manufacturer's instructions.
The EC50s are calculated based on the amount of cGMP interpolated from the standard curve, using a 4-parameter sigmoidal dose-response.
Compounds of invention are active on sGC activation. Data in Table 1 collected using the assay of Biological Example 1.
(TR-FRET usually uses a lanthanide donor and a delayed reading to cut background.)

Where [3] appears, read: CHO cellular assay, as repeated in Table 2, read-out: EC50 from biological Example #1.
The mark [4] stands for this setting: i.v. 0.5 mg/kg each, three test articles, Cassette - E (10% propylene glycol, 10% Solutol HS15, PBS).
The mark [5] stands for this setting: CHO GUCY clone 8E10, assay buffer with 1 mM IBMX, 20 uM ODQ, 1 h at room temperature, cGMP HTRF, quantification limit 0.0005 μM, read-out: Mean EC50.

In general, clearance refers to a measure of how efficiently the substance is removed, as volume per time. Low values mean a low capacity for elimination, high ones a high capacity for elimination. As a reminder, the pEC50 is the EC50 on a negative log10 scale, so that one unit is a factor of ten. Take `Cc1cc(C2CCN(C(=O)C3CC3)CC2)ccc1NC1CCc2cccc(-c3cccc(-n4ncc(C(=O)O)c4C)c3)c21` (single isomer, unassigned; (+)) [(+)-1-(3-(3-((4-(1-(cyclopropanecarbonyl)piperidin-4-yl)-2-methylphenyl)amino)-2,3-dihydro-1H-inden-4-yl)phenyl)-5-methyl-1H-pyrazole-4-carboxylic acid, reference compound]: the clearance in data set [1] (i.v. 0.5 mg/kg each, three test articles, Cassette - F (20% propylene glycol, 10% Solutol HS15, PBS)) was found to be 24.9 mL/min/kg. Also, the pEC50 in data set [2] (setting [3]) is more than 9.30.

In the case of `Cc1cc(C2CCN(C(=O)C3CC3)CC2)ccc1CC1CCc2cccc(-c3cccc(-n4ncc(C(=O)O)c4C)n3)c21` (single isomer, unassigned; (+)) [(+)-1-(6-(3-(4-(1-(cyclopropanecarbonyl)piperidin-4-yl)-2-methylbenzyl)-2,3-dihydro-1H-inden-4-yl)pyridin-2-yl)-5-methyl-1H-pyrazole-4-carboxylic acid], the clearance was 97.2 mL/min/kg in data set [1] (setting [4]) and 25.6 mL/min/kg in data set [1] (i.v. 0.5 mg/kg, Discrete - D (10% propylene glycol, 10% Solutol HS15, PBS)). Besides, the negative-log EC50 (pEC50) in data set [2] (setting [3]) is more than 9.30.

In the case of `CCc1cc(OC2CCc3cccc(-c4cccc(-n5ncc(C(=O)O)c5CC)n4)c32)ccc1C1CCN(C(=O)C2CC2)CC1` (single isomer, unassigned; (+)) [(+)-1-(6-(3-(4-(1-(cyclopropanecarbonyl)piperidin-4-yl)-3-ethylphenoxy)-2,3-dihydro-1H-inden-4-yl)pyridin-2-yl)-5-ethyl-1H-pyrazole-4-carboxylic acid], the clearance is 6.6 mL/min/kg in data set [1] (setting [4]) and 14 mL/min/kg in data set [1] (i.v. 0.5 mg/kg, Discrete - G (20% propylene glycol, 50% of 20% Solutol HS15, water)). Moreover, the pEC50 in data set [2] (setting [3]) was more than 9.30.

Regarding `CCc1cc(O[C@H]2CCc3cccc(-c4cccc(-n5ncc(C(=O)O)c5OC)c4)c32)ccc1C1CCN(C(=O)[C@H](C)O)CC1` [Example 6, 1-(3-((S)-3-(3-Ethyl-4-(1-((S)-2-hydroxypropanoyl)piperidin-4-yl)phenoxy)-2,3-dihydro-1H-inden-4-yl)phenyl)-5-methoxy-1H-pyrazole-4-carboxylic acid], the pEC50 in data set [2] (setting [5]) was more than 9.30.

On to `CCc1cc(C[C@H]2CCc3cccc(-c4cccc(-n5ncc(C(=O)O)c5OC)n4)c32)ccc1C1CCN(C(=O)C2CC2)CC1` [Example 13, (+)-(R)-1-(6-(3-(4-(1-(Cyclopropanecarbonyl)piperidin-4-yl)-3-ethylbenzyl)-2,3-dihydro-1H-inden-4-yl)pyridin-2-yl)-5-methoxy-1H-pyrazole-4-carboxylic acid], for which the negative-log EC50 (pEC50) in data set [2] (setting [5]) was more than 9.30.

With `CCc1cc(O[C@H]2CCc3cccc(-c4cccc(-n5ncc(C(=O)O)c5OC)n4)c32)ccc1C1CCN(C(=O)C2CC2)CC1` [Example 14, (S)-1-(6-(3-(4-(1-(Cyclopropanecarbonyl)piperidin-4-yl)-3-ethylphenoxy)-2,3-dihydro-1H-inden-4-yl)pyridin-2-yl)-5-methoxy-1H-pyrazole-4-carboxylic acid], the negative-log EC50 (pEC50) in data set [2] (setting [5]) is more than 9.30.

Turning to `CCc1cc(O[C@H]2CCc3cccc(-c4cccc(-n5ncc(C(=O)O)c5OC)n4)c32)ccc1C1CCN(C(=O)[C@H](C)O)CC1` [Example 15, 1-(6-((S)-3-(3-Ethyl-4-(1-((S)-2-hydroxypropanoyl)piperidin-4-yl)phenoxy)-2,3-dihydro-1H-inden-4-yl)pyridin-2-yl)-5-methoxy-1H-pyrazole-4-carboxylic acid], the negative-log EC50 (pEC50) in data set [2] (setting [5]) was 9.00.

For the molecule `CCc1cc(O[C@H]2CCc3cccc(-c4cccc(-n5ncc(C(=O)O)c5N)n4)c32)ccc1C1CCN(C(=O)C2CC2)CC1` [Example 19, (S)-5-Amino-1-(6-(3-(4-(1-(cyclopropanecarbonyl)piperidin-4-yl)-3-ethylphenoxy)-2,3-dihydro-1H-inden-4-yl)pyridin-2-yl)-1H-pyrazole-4-carboxylic acid], in data set [2] (setting [5]), the pEC50 was 8.52.

`CCc1cc(C[C@H]2CCc3cccc(-c4cccc(-n5ncc(C(=O)O)c5N)c4)c32)ccc1C1CCN(C(=O)C2CC2)CC1` [Example 20, (+)-(R)-5-Amino-1-(3-(3-(4-(1-(cyclopropanecarbonyl)piperidin-4-yl)-3-ethylbenzyl)-2,3-dihydro-1H-inden-4-yl)phenyl)-1H-pyrazole-4-carboxylic acid]: in data set [2] (setting [5]), the pEC50 was more than 9.30.

Turning to `CCc1cc(C[C@H]2CCc3cccc(-c4cccc(-n5ncc(C(=O)O)c5NC)c4)c32)ccc1C1CCN(C(=O)C2CC2)CC1` [Example 21, (R)-1-(3-(3-(4-(1-(cyclopropanecarbonyl)piperidin-4-yl)-3-ethylbenzyl)-2,3-dihydro-1H-inden-4-yl)phenyl)-5-(methylamino)-1H-pyrazole-4-carboxylic acid], in data set [2] (setting [5]), the pEC50 was more than 9.30.

In the case of `CCc1cc(C[C@H]2CCc3cccc(-c4cccc(-n5ncc(C(=O)O)c5N)n4)c32)ccc1C1CCN(C(=O)C2CC2)CC1` [Example 23, (R)-5-Amino-1-(6-(3-(4-(1-(cyclopropanecarbonyl)piperidin-4-yl)-3-ethylbenzyl)-2,3-dihydro-1H-inden-4-yl)pyridin-2-yl)-1H-pyrazole-4-carboxylic acid], the pEC50 in data set [2] (setting [5]) was more than 9.30.

For `CCc1cc(C[C@H]2CCc3cccc(-c4cccc(-n5ncc(C(=O)O)c5OC)n4)c32)ccc1C1CCN(C(=O)[C@H](C)O)CC1` [Example 24, (+)-(R)-1-(6-(3-(3-Ethyl-4-(1-((S)-2-hydroxypropanoyl)piperidin-4-yl)benzyl)-2,3-dihydro-1H-inden-4-yl)pyridin-2-yl)-5-methoxy-1H-pyrazole-4-carboxylic acid], the negative logarithm of the EC50 (pEC50) in data set [2] (setting [5]) was more than 9.30.
